Numbering of substitutions follows the chain as printed.
Tests used:
Format in all cases: biochemical
Details in all cases: error in parentheses, no unit in table (sec^−1)
WT h15-LOX-1 = molecular target: T1, WT h15-LOX-1 (Homo sapiens, UniProt P16050); assay: Steady-state substrate kinetics, WT
T1 sequence (P16050 1-662): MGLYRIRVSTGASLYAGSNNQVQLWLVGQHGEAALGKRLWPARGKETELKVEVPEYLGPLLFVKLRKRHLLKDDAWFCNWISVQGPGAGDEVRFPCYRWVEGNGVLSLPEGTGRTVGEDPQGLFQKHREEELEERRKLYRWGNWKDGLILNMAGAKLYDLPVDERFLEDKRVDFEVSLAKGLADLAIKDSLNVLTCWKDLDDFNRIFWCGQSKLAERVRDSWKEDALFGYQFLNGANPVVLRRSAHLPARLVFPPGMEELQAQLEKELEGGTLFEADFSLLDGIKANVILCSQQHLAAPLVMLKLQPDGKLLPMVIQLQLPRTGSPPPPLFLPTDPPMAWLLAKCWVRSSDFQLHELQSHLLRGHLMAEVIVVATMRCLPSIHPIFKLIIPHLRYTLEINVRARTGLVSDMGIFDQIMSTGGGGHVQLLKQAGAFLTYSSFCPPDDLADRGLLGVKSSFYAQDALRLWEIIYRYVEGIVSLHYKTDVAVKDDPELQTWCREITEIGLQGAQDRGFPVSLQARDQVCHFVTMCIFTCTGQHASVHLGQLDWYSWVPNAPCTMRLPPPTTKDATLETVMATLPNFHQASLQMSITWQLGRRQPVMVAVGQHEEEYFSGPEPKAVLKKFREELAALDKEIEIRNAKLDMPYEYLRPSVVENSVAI

h15-LOX-1 Q547L = molecular target: T2, h15-LOX-1 Q547L (Homo sapiens, UniProt P16050, Q547L); assay: Steady-state substrate kinetics, Q547L
T2 sequence (P16050 1-662 Q547L): T1 sequence (P16050 1-662) with Q547L

h15-LOX-1 F414I = molecular target: T3, h15-LOX-1 F414I (Homo sapiens, UniProt P16050, F414I); assay: Steady-state substrate kinetics, F414I
T3 sequence (P16050 1-662 F414I): T1 sequence (P16050 1-662) with F414I

h15-LOX-1 L407A = molecular target: T4, h15-LOX-1 L407A (Homo sapiens, UniProt P16050, L407A); assay: Steady-state substrate kinetics, L407A
T4 sequence (P16050 1-662 L407A): T1 sequence (P16050 1-662) with L407A

CCCCC/C=C\C/C=C\C/C=C\C/C=C\CCCC(=O)O [AA, arachidonic acid]
kcat (WT h15-LOX-1): 11 (0.5) | kcat (h15-LOX-1 Q547L): 2.9 (0.1) | kcat (h15-LOX-1 F414I): 1.8 (0.05) | kcat (h15-LOX-1 L407A): 2.5 (0.2)

Source: paper PMC5065787 (Bioorganic & medicinal chemistry, 2016)
